Laboratory results from patent publication US20250034164A1, “NOVEL COMPOUND AND COMPOSITION FOR PREVENTING OR TREATING NEUROINFLAMMATORY BRAIN DISEASES COMPRISING SAME AS ACTIVE INGREDIENT” (KOREA INSTITUTE OF OCEAN SCIENCE & TECHNOLOGY, priority 2021, published 2025).

Key:
[1] = tested on: nitric oxide (NO) produced in mouse BV-2 microglia cells stimulated with LPS; test: NO production inhibition in LPS-stimulated BV-2 microglia cells (Griess reagent); format: cell-based; details: LPS 200 ng/ml; for IC50: mouse BV-2 microglia cells, 24 h, read-out: NO inhibitory activity (IC50 value)
Description: (§1) BV-2 microglia cells were cultured in a humidified 5% CO2 incubator at 37° C. using a Dulbecco's modified Eagle medium supplemented with 5% fetal bovine serum and 1% penicillin/streptomycin at 100 units/mL.
In all experiments, the number of cells was 2.5×10^5 cell/ml, the cells were first treated with each of Compounds of Examples 1 to 25 by concentration (2.5 to 200 μg/ml), and LPS was diluted in medium and used at a concentration of 200 ng/ml. A cytotoxicity test was performed using MTT assay, and the MTT assay was performed by performing NO assay and injecting 30 μl of MTT at a concentration of 0.5 mg/ml into the cells in a microplate. After reacting for 2 hours in the incubator, formazan crystals were dissolved in 100 μl of DMSO, and the absorbance was measured using a Vmax microplate reader (Tencan Co., Switzerland) with a wavelength of 540 nm. In order to quantitatively measure the production of nitric oxide (NO), mouse BV-2 microglia cells were prepared in a microplate (96 well), and added with LPS (200 ng/ml) and Compounds by concentration (2.5 to 200 μg/ml). The cells reacted in an incubator for 24 h, and 50 μl of the supernatant reacted with a Griess reagent (a mixed solution of 1% sulfanilamide, 0.1% N-(1-naphthyl)-ethylenediamine dihydrochloride, and 2.5% H3PO4), and then the absorbance was measured using a Vmax 96-well microplate spectrophotometer with a wavelength of 550 nm.
In order to analyze the anti-inflammatory efficacy of Compound of Example 1, the concentration inhibitory effect of nitric oxide (NO) produced in mouse BV-2 microglia cells stimulated with LPS (200 ng/ml), a neuroinflammatory factor, was confirmed.
The neuroinflammation inhibitory effects of Compounds of Examples 2 to 25 were confirmed.
In order to analyze the anti-inflammatory efficacy of Compound 26 of Chemical Formula 2, the concentration inhibitory effect of nitric oxide (NO) produced in mouse BV-2 microglia cells stimulated with LPS (200 ng/ml), a neuroinflammatory factor, was confirmed. Compound 26 of Chemical Formula 2 was purchased from Santa Cruz biotechnology (CAS 79127-35-8) and the experiment was performed. As a result of treating Compound of Chemical Formula 2 at […], it was confirmed that the amount of nitric oxide (NO) was reduced, as shown in FIG. 37A.

[2] = tested on: cyclooxygenase type 2 (COX-2); test: COX-2 protein and gene expression in LPS-treated BV-2 cells (Western blot, RT-PCR); format: cell-based, mouse; details: LPS 200 ng/ml, 2 to 80 μg/ml, protein 18 hours, gene 6 hours
Description: as §1
(§2) After culturing for 18 hours, the proteins were identified, and the expression patterns of iNOS and COX-2 proteins were confirmed by performing Western blot using polyclonal antibodies to iNOS and COX-2. For 6 hours after culturing the BV-2 cells by setting the same conditions, the cell supernatant was removed, RNA was identified from the cells, and iNOS and COX-2 genes were analyzed by RT-PCR. As a result, as shown in FIGS. 30(c), 35(c), and 36(c), it could be confirmed that natural product Compound 1 and derivative Compounds 4 and 6 decreased the expression levels of iNOS and COX-2 proteins and genes in a concentration-dependent manner.

IL1-β = IL1-β gene expression in LPS-stimulated BV-2 microglia cells (RT-PCR); format: cell-based, mouse; details: BV-2 cells, pretreated 1 hour at 2 to 80 μg/ml, LPS 200 ng/ml, 6 hours
Description: as §1
(§3) Then, the cells were stimulated with LPS (200 ng/ml). After 6 hours, the cell supernatant was removed, RNA was identified from the cells, and TNF-α, IL1-β, and IL-6 genes were analyzed by RT-PCR. As a result, as shown in FIGS. 30(d), 35(d), and 36(d), it could be confirmed that natural product compound 1 and derivative compounds 4 and 6 decreased the expression levels of TNF-α, IL1-β, and IL-6 genes in a concentration-dependent manner.

IL-6 = IL-6 gene expression in LPS-stimulated BV-2 microglia cells (RT-PCR); format: cell-based, mouse; details: BV-2 cells, pretreated 1 hour at 2 to 80 μg/ml, LPS 200 ng/ml, 6 hours
Description: as §1, §3

[3] = tested on: inducible nitric oxide synthase (iNOS); test: iNOS protein and gene expression in LPS-treated BV-2 cells (Western blot, RT-PCR); format: cell-based, mouse; details: LPS 200 ng/ml, 2 to 80 μg/ml, protein 18 hours, gene 6 hours
Description: as §1, §2

TNF-α = TNF-α gene expression in LPS-stimulated BV-2 microglia cells (RT-PCR); format: cell-based, mouse; details: BV-2 cells, pretreated 1 hour at 2 to 80 μg/ml, LPS 200 ng/ml, 6 hours
Description: as §1, §3

O=C1O[C@@H]2OC(CO)=C[C@H]3[C@@H]2C=C[C@@H]13 [Compound 1, (1S,4aS,5R,7aS)-3-(hydroxymethyl)-1,4a,5,7a-tetrahydro-1,5-(epoxymethano)cyclopenta[c]pyran-8-one]
amount of nitric oxide (NO) ([1]; BV-2 cells, treated at 20 to 60 μM (FIG. 30A)): reduced
IC50 [1]: 46.6 µM
expression levels of COX-2 proteins and genes [2]: decreased
expression levels of IL1-β gene (IL1-β): decreased
expression levels of IL-6 gene (IL-6): decreased
expression levels of iNOS proteins and genes [3]: decreased
expression levels of TNF-α gene (TNF-α): decreased

O=C(OCC1=C[C@H]2[C@@H]3C=C[C@H]2C(=O)O[C@@H]3O1)c1ccc(Br)cc1 [Compound 4, ((1S,4aS,5R,7aS)-8-oxo-1,4a,5,7a-tetrahydro-1,5-(epoxymethano)cyclopenta[c]pyran-3-yl)methyl 4-bromobenzoate]
IC50 [1]: 13.3 µM
expression levels of COX-2 proteins and genes [2]: decreased
expression levels of IL1-β gene (IL1-β): decreased
expression levels of IL-6 gene (IL-6): decreased
expression levels of iNOS proteins and genes [3]: decreased
expression levels of TNF-α gene (TNF-α): decreased

O=CC1=C[C@H]2[C@@H]3C=C[C@H]2C(=O)O[C@@H]3O1 [Compound 6, (1S,4aS,5R,7aS)-8-oxo-1,4a,5,7a-tetrahydro-1,5-(epoxymethano)cyclopenta[c]pyran-3-carbaldehyde]
IC50 [1]: 4.5 µM
expression levels of COX-2 proteins and genes [2]: decreased
expression levels of IL1-β gene (IL1-β): decreased
expression levels of IL-6 gene (IL-6): decreased
expression levels of iNOS proteins and genes [3]: decreased
expression levels of TNF-α gene (TNF-α): decreased
